Reference: patent US9708251B2, “Unsaturated fatty alcohol alkoxylates from natural oil metathesis” (Stepan Company, priority 2012, dated 2017)

Key:
Format in all cases: physicochemical
[1] = Emulsion stability testing of nonionic emulsifiers, aromatic solvent series; parameters: key to 24 h separation, appearance / 1 h separation, appearance / 1 h separation, amount: C = creamy; CO = creamy oil; O = oil; GC = gritty cream; NS = no separation; OC = oily cream; key to Spon. (spontaneity): G = good; F = fair; P = poor
[2] = Emulsion stability testing of nonionic emulsifiers, Hallcomid solvent series; parameters: key to 24 h separation, appearance / 1 h separation, appearance / 1 h separation, amount: C = creamy; CO = creamy oil; O = oil; GC = gritty cream; NS = no separation; OC = oily cream; key to Spon. (spontaneity): G = good; F = fair; P = poor
[3] = Surfactant phase behavior study (cross-polarized microscopy); settings: room temperature, in deionized water
How it was run: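 Saturated analogs serve as comparators. Water dilutions of the product, stepped at 2-4% near transitions, equilibrated between slide and cover glass and assigned phase by cross-polarized microscopy texture at 100-400×, 20-22° C. Boundaries lie within ±5% actives; some samples checked by viscosity at 25° C.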

[4] = Emulsion stability testing of nonionic emulsifiers, Hallcomid solvent series; parameters: key: C = creamy; CO = creamy oil; O = oil; GC = gritty cream; NS = no separation; OC = oily cream; Tr. = trace; settings: Bifenthrin 240 g/L in Hallcomid M-8-10, 34 ppm water
Description: Nonionic samples contain a low amount of water (<1%) and are prepared as emulsifiable concentrates with three pesticides using two different solvent systems. In the aromatic solvent series, the nonionic sample replaces Toximul® 8240 (castor oil ethoxylate, 36 POE, Stepan), and in the Hallcomid™ (N,N-dimethylcaprylamide/N,N-dimethylcapramide, Stepan) solvent series, the nonionic sample replaces Ninex® MT-630F.
Hallcomid Solvent Series.
Sample preparation: The surfactants are combined and stirred until homogeneous, with the nonionic sample melted if needed prior to combination. Controls 1-3 are made by using Ninex MT-630F in the amounts indicated instead of the nonionic sample.
Emulsion Stability Testing
A Mohr pipette is used to feed pesticide/surfactant concentrates to each cylinder.

[5] = Fabric cleaning: compaction (surfactant blends)
Description: The sample is formulated into surfactant blends having high actives content. Two experimental derivatives, A12-13 and A12-21, are evaluated.
In a first experiment, a three-component surfactant blend is prepared. This blend comprises the experimental sample (30 wt. %), a linear alkylbenzene sulfonate (15 wt. %), and an alkyl ether sulfate (15 wt. %). The appearance and viscosity of the blend are compared with those of similar three-component blends in which a standard alcohol ethoxylate replaces the experimental sample.
In a second experiment, a two-component surfactant blend is prepared in which the experimental sample and a linear alkylbenzene sulfonate are combined at a 1:1 actives ratio, beginning with a high actives blend having a cloudy appearance. Water is gradually added and mixed with the surfactant blend at room temperature. […]

[6] = 2,4-D ester 480 g/L in Exxsol D-110, 34 ppm water
[7] = 2,4-D ester 480 g/L in Exxsol D-110, 1000 ppm water
[8] = Bifenthrin 240 g/L in Aromatic 100, 34 ppm water
[9] = Bifenthrin 240 g/L in Aromatic 100, 1000 ppm water
[10] = Tebuconazole 360 g/L in N-methyl-2-pyrrolidone, 34 ppm water
[11] = Tebuconazole 360 g/L in N-methyl-2-pyrrolidone, 1000 ppm water
[12] = 2,4-D diester 480 g/L in Hallcomid M-8-10, 34 ppm water
[13] = 2,4-D diester 480 g/L in Hallcomid M-8-10, 1000 ppm water
[14] = Bifenthrin 240 g/L in Hallcomid M-8-10, 34 ppm water
[15] = Bifenthrin 240 g/L in Hallcomid M-8-10, 1000 ppm water
[16] = Tebuconazole 360 g/L in Hallcomid M-8-10, 34 ppm water
[17] = Tebuconazole 360 g/L in Hallcomid M-8-10, 1000 ppm water
[18] = three-component blend: sample 30 wt. %, linear alkylbenzene sulfonate 15 wt. %, alkyl ether sulfate 15 wt. %

CCC=CCCCCCCCCOCCOCCOCCOCCOCCO (mixture of isomers) [A12-10]
1 h separation, amount [1, 6]: 0.7 mL
1 h separation, appearance [1, 6]: C
24 h separation, amount [1, 6]: 3.9 mL
24 h separation, appearance [1, 6]: C
Spon. (spontaneity) [1, 6]: F
1 h separation, amount [1, 7]: 4.6 mL
1 h separation, appearance [1, 7]: CO
24 h separation, amount [1, 7]: 0.75 O, 4.3 CO
Spon. (spontaneity) [1, 7]: P
1 h separation, amount [1, 8]: 2.3 mL
1 h separation, appearance [1, 8]: C
24 h separation, amount [1, 8]: 9 mL
24 h separation, appearance [1, 8]: C
Spon. (spontaneity) [1, 8]: F
Spon. (spontaneity) [1, 9]: F
1 h separation, amount [1, 10]: 2.6 mL
1 h separation, appearance [1, 10]: C
24 h separation, amount [1, 10]: 4 mL
24 h separation, appearance [1, 10]: GC
Spon. (spontaneity) [1, 10]: P
1 h separation, amount [1, 11]: 2.1 mL
1 h separation, appearance [1, 11]: C
24 h separation, amount [1, 11]: 3.2 mL
24 h separation, appearance [1, 11]: GC
Spon. (spontaneity) [1, 11]: P
1 h separation, amount [2, 12]: 5.3 mL
1 h separation, appearance [2, 12]: C
24 h separation, amount [2, 12]: 9.2 mL
24 h separation, appearance [2, 12]: C
Spon. (spontaneity) [2, 12]: P
1 h separation, amount [2, 13]: 6.8 mL
1 h separation, appearance [2, 13]: C
24 h separation, amount [2, 13]: 8.7 mL
24 h separation, appearance [2, 13]: C
Spon. (spontaneity) [2, 13]: F
1 h separation, amount [2, 14]: NS
24 h separation, appearance [2, 14]: C
Spon. (spontaneity) [2, 14]: G
1 h separation, amount [2, 15]: 6.1 mL
1 h separation, appearance [2, 15]: O
24 h separation, amount [2, 15]: 3 O, 2 CO
Spon. (spontaneity) [2, 15]: F
1 h separation, amount [2, 16]: 2.1 mL
1 h separation, appearance [2, 16]: C
24 h separation, amount [2, 16]: 5.1 mL
24 h separation, appearance [2, 16]: C
Spon. (spontaneity) [2, 16]: F
1 h separation, amount [2, 17]: 2 mL
1 h separation, appearance [2, 17]: C
24 h separation, amount [2, 17]: 4.2 mL
24 h separation, appearance [2, 17]: C
Spon. (spontaneity) [2, 17]: F
Lamellar phase region [3]: 50-80 % Actives Level
Lamellar/Isotropic phase region [3]: 35-50 % Actives Level
24 h separation, amount [4]: Tr.

CCC=CCCCCCCCCOCCOCCOCCOCCOCCOCCOCCO (mixture of isomers) [A12-13]
1 h separation, amount [1, 6]: 3.5 mL
1 h separation, appearance [1, 6]: C
24 h separation, amount [1, 6]: 5 mL
24 h separation, appearance [1, 6]: C
Spon. (spontaneity) [1, 6]: F
1 h separation, amount [1, 7]: 5.2 mL
1 h separation, appearance [1, 7]: CO
24 h separation, amount [1, 7]: 5 mL
24 h separation, appearance [1, 7]: CO
Spon. (spontaneity) [1, 7]: F
1 h separation, amount [1, 8]: 1 mL
1 h separation, appearance [1, 8]: C
24 h separation, amount [1, 8]: 4.9 mL
24 h separation, appearance [1, 8]: C
Spon. (spontaneity) [1, 8]: F
1 h separation, amount [1, 9]: Tr.
1 h separation, appearance [1, 9]: C
24 h separation, amount [1, 9]: 0.5 CO, 1 C
Spon. (spontaneity) [1, 9]: G
1 h separation, amount [1, 10]: 1.8 mL
1 h separation, appearance [1, 10]: C
24 h separation, amount [1, 10]: 3 GC, 4 CO
Spon. (spontaneity) [1, 10]: P
1 h separation, amount [1, 11]: 2.4 mL
1 h separation, appearance [1, 11]: C
24 h separation, amount [1, 11]: 3.5 mL
24 h separation, appearance [1, 11]: GC
Spon. (spontaneity) [1, 11]: P
1 h separation, amount [2, 12]: 4.4 mL
1 h separation, appearance [2, 12]: C
24 h separation, amount [2, 12]: 9.6 mL
24 h separation, appearance [2, 12]: C
Spon. (spontaneity) [2, 12]: P
1 h separation, amount [2, 13]: 5.2 mL
1 h separation, appearance [2, 13]: C
24 h separation, amount [2, 13]: 9 mL
24 h separation, appearance [2, 13]: C
Spon. (spontaneity) [2, 13]: F
1 h separation, amount [2, 14]: NS
24 h separation, appearance [2, 14]: C
Spon. (spontaneity) [2, 14]: G
1 h separation, amount [2, 15]: 5.1 mL
1 h separation, appearance [2, 15]: CO
24 h separation, amount [2, 15]: 3 O, 2 CO
Spon. (spontaneity) [2, 15]: F
1 h separation, amount [2, 16]: 1.3 mL
1 h separation, appearance [2, 16]: C
24 h separation, amount [2, 16]: 4.1 mL
24 h separation, appearance [2, 16]: C
Spon. (spontaneity) [2, 16]: F
1 h separation, amount [2, 17]: 1.8 mL
1 h separation, appearance [2, 17]: C
24 h separation, amount [2, 17]: 4.3 mL
24 h separation, appearance [2, 17]: C
Spon. (spontaneity) [2, 17]: G
Hexagonal phase region [3]: 35-57 % Actives Level
Appearance, 25° C. [5, 18]: cloudy, flowable gel
Viscosity [5, 18]: 5400 cPs
% Actives at which blend is clear and homogeneous at 25° C. ([5]; two-component blend with linear alkylbenzene sulfonate, 1:1 actives ratio): 41 % Actives
24 h separation, amount [4]: Tr.
